Reference: US20240165097A1, “PHARMACEUTICAL COMPOSITION FOR THE TREATMENT OF ALZHEIMER'S DISEASE OR DEMENTIA” (Heptares Therapeutics Limited, priority 2021, published 2024)

Tests used:
[1] = in humans; cited from earlier work
[2] = system: patients with mild-to-moderate AD; assay: Example D: Cogstate neuropsychological test battery; assay type: in vivo, human
From the text: Exploratory PD effects of HTL0018318 were examined via both behavioural (Cogstate neuropsychological test battery [NTB]) tests of cognitive function and electrophysiological (electroencephalogram [EEG] and evoked response potentials [ERPs]) biomarkers. Further details of each biomarker/test and outcome variables are provided below. Twelve-item neuropsychiatric inventory (NPI-12) scores were used to evaluate neuropsychiatric symptoms.
Exploratory pharmacodynamic endpoints (Cogstate tests and EEG/evoked response potential [ERP] biomarkers) were evaluated at screening (practice sessions) and baseline visits, and on Day 28±1. While this study was not powered to detect PD effects of small to moderate ESs, the study sample size provided approximately 80% power to detect a large ES of 0.97 for these endpoints using a significance level of 0.10.
A Cogstate neuropsychological test battery (NTB; http://www.Cogstate.com/) was administered as a computerised test, with the following cognitive tasks included in the battery. The total duration of the battery was approximately 30-40 minutes: • Identification (IDN)—reaction time (attention) • International shopping list immediate recall (ISL) and international shopping list-delayed recall (ISRL)—number of words recalled (episodic memory/verbal learning) • One back test (ONB)—accuracy and reaction time (working memory/executive function) • Groton maze learning (GML; forward and reverse maze learning)—accuracy (executive function)
The IDN is a measure of choice reaction time. In this task, an event (ie, a card turning face-up) occurs in the centre of the computer screen, and the patient must decide “YES” or “NO” as to whether or not this event meets a predefined and unchanging criterion (is the colour of the card red?). For this test, the primary dependent measure of the study was mean of the log10 transformed reaction times for correct responses.
The ISL and ISRL are a computer controlled verbal learning/episodic memory test. In this test, patients are read a list of 12 words. Each word is a concrete noun and describes an item of food that is found commonly in the culture/society in which testing is occurring. The examiner tells the patients “I am going to read to you a list of items I want you to get from the supermarket/store/market/shop”. After the 12 words have been read, the patient tries to recall as many of the words as they can immediately (ie, ISL immediate recall). Once they can recall no more words, the same list is read a second time with the words in the same order, after the same instruction. The process of reading the list and waiting for responses occurs 3 times. At the completion of the computerised battery (and with a minimum 20-minute delay) the patient is asked to recall as many of the items as they can from the shopping list (ISL delayed recall; ie, ISRL). For both ISL and ISRL tests, the primary dependent measure was number of words recalled.
The ONB memory task is a valid measure of working memory. In this task, the patient is shown a single stimulus in the centre of the computer screen (ie, a card turns face-up). He or she must decide “YES” or “NO” as to whether or not the current card matches the card that was seen on the immediately previous trial. The software measures the speed and accuracy of each response. For this test, the primary dependent measure of the study was arcsine transformation of the proportion of correct responses (i.e. accuracy).
The modified GML evaluates short-term memory. The test begins with a chase task to allow the patient to become familiar with the task context. The patient is shown a 10×10 grid of tiles on a computer touch screen. The patient is instructed to chase a moving tile around the grid. Once the patient understands the rules, he or she can proceed onto the timed chase test, where the patient must chase the target for 30 seconds. For the GML, the patient is shown the same 10×10 grid of tiles on a computer touch screen. […]

## CCOC(=O)N1C2CCC1CC(N1CCC3(CC1)CNC(=O)C3)C2 (stereo not drawn) [HTL0018318, ethyl 3-(3-oxo-2,8-diazaspiro[4.5]dec-8-yl)-8-azabicyclo[3.2.1]octane-8-carboxylate]
[1]
  Tmax: 1 to 2 h
  half-life: approximately 16 hours
[2]; 15 mg, Day 28
  IDN attention (reaction time), ES: 0.62
  IDN attention (reaction time), LSM difference from placebo: 0.11
[2]; 25 mg, Day 28
  ISL composite (immediate and delayed recall), LSM difference from placebo: 0.21
  ISL composite, ES: 0.48
  ISL-delayed recall, ES: 0.49
  ISL-delayed recall, LSM difference from placebo: 0.65
  ISL-immediate recall, ES: 0.34
  ISL-immediate recall, LSM difference from placebo: 1.11 words
[2]; 5 and 25 mg, Day 28
  IDN attention (reaction time): Non-significant, improvements
[2]; any HTL0018318 dose
  ONB reaction time or accuracy, GML task (forward or reverse) performance: no statistically significant differences
